Data: patent publication US10077261B2, “Imidazolin-5-one derivative useful as FASN inhibitors for the treatment of cancer” (Janssen Pharmaceutica NV, priority 2012, dated 2018)

Molecular target: T1, hFASN enzyme (full length) (Homo sapiens, UniProt P49327)
T1 construct: 10 μL hFASN enzyme (full length, 300 ng, purified in house); made in house
Experiment: Fatty Acid Synthase (FASN) inhibition scintillation proximity assay
Type: biochemical
Conditions: for inhibition at 10 µM: read-out: Human FASN % inhibition @ 10 μM, 10 μM test compound; for IC50: read-out: Human FASN pIC50 (converted)
Outline: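 Read-out relies on hydrophobic ³H-palmitate product, formed from ³H-acetyl-CoA and malonyl-CoA, binding streptavidin imaging beads, measured at 610±20 nm after at least 24 h. Full-length enzyme (300 ng) in phosphate buffer pH 7.5 with DTT; eight compound concentrations, 0.01–30 μM.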

T1 sequence (P49327 whole entry): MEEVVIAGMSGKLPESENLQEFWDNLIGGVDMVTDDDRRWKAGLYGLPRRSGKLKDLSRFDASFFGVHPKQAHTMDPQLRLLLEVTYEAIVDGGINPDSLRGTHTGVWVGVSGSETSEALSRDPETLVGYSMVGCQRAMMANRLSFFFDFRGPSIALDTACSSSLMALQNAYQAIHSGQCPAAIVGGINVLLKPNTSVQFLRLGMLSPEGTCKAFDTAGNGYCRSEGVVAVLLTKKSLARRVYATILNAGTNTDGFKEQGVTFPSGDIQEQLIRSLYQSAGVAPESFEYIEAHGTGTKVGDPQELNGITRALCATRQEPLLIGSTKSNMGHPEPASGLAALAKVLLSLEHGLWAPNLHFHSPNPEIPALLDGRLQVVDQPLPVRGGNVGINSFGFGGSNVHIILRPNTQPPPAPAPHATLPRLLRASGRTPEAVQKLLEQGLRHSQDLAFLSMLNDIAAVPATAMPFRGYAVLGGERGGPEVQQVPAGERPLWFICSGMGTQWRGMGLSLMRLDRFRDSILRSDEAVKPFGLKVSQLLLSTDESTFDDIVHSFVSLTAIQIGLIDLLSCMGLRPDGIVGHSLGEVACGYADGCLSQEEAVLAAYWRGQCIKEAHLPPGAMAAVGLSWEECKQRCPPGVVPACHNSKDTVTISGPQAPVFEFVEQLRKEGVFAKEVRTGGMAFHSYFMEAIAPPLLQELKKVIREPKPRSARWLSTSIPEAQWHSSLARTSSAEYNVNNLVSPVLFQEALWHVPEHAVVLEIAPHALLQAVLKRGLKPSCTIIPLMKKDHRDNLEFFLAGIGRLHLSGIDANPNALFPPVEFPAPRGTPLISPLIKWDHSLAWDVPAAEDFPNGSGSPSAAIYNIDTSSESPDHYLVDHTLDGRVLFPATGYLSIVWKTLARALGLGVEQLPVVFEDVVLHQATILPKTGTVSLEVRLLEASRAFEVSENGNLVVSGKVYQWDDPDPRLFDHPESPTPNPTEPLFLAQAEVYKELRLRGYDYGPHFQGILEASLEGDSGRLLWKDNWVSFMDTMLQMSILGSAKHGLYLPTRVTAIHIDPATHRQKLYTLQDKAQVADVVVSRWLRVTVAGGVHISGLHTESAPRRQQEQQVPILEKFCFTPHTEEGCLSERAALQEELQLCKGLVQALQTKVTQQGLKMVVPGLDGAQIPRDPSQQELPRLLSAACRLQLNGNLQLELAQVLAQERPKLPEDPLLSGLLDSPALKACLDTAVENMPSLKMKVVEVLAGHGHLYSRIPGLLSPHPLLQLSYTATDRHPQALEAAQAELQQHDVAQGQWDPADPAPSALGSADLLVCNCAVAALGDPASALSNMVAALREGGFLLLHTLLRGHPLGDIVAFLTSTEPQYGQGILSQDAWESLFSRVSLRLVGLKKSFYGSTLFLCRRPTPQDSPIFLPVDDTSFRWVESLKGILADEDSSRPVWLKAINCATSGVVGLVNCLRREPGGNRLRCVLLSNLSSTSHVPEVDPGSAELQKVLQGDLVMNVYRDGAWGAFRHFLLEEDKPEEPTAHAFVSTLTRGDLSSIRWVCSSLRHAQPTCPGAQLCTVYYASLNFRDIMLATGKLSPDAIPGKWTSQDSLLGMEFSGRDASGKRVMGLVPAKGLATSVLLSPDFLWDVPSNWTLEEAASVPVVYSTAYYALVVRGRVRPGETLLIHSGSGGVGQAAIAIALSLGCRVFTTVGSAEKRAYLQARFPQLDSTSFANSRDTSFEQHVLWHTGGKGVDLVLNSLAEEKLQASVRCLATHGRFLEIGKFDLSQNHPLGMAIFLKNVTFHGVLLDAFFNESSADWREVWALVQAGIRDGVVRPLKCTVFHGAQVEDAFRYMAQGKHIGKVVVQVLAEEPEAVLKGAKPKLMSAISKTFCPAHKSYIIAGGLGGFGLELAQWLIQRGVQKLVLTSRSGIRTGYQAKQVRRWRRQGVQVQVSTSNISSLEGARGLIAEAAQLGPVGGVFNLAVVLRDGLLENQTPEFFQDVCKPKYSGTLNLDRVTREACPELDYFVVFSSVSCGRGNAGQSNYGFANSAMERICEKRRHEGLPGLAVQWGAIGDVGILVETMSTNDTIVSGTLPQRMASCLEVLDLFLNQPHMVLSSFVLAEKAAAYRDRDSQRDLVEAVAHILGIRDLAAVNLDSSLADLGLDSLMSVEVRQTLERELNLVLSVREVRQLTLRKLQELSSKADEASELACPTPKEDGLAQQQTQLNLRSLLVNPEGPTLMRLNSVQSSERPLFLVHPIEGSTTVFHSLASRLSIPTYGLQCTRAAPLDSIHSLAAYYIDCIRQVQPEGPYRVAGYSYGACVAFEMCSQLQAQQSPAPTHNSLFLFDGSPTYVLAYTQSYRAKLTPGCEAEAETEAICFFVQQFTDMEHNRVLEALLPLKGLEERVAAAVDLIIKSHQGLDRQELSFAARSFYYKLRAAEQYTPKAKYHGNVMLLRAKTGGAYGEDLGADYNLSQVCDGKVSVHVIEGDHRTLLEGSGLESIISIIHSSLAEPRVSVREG

In the case of `O=C(c1nccs1)N1CC[C@@H](CN2C(=O)C3(CCOC3)N=C2c2ccc(-c3ccc4cccnc4c3)cc2)C1` (stereo partly drawn) [compound 920, 2-(4-(quinolin-7-yl)phenyl)-3-(((R)-1-(thiazole-2-carbonyl)pyrrolidin-3-yl)methyl)-7-oxa-1,3-diazaspiro[4.4]non-1-en-4-one], the inhibition at 10 µM was 35% and the IC50 was over 10 µM.

Molecule `O=C(C1CC1)N1CCC[C@H](CN2C(=O)C3(CC3)N=C2c2ccc(-c3ccc(-c4cccc(Cl)c4)cc3)cc2)C1` [compound 813, (S)-5-(3″-chloro-[1,1′:4′,1″-tertphenyl]-4-yl)-6-((1-(cyclopropanecarbonyl)piperidin-3-yl)methyl)-4,6-diazaspiro[2.4]hept-4-en-7-one] has an inhibition at 10 µM of 2% and an IC50 of over 10 µM.

Work on `Cc1sc2ccc(-c3ccc(C4=NC5(CCN(C(C)C)CC5)C(=O)N4C[C@@H]4CCN(C(=O)C5CC5)C4)cc3)cc2c1C` [compound 184, 3-{[(3R)-1-(Cyclopropylcarbonyl)pyrrolidin-3-yl]methyl}-2-[4-(2,3-dimethyl-1-benzothiophen-5-yl)phenyl]-8-(1-methylethyl)-1,3,8-triazaspiro[4.5]dec-1-en-4-one] yielded an inhibition at 10 µM of 107% and an IC50 of 0.437 µM.

Work on `CC(C)N1CCC2(CC1)N=C(c1ccc(-c3ccc4occc4c3)cc1)N(CC1CN(C(=O)C3CC3)C1)C2=O` [compound 166, 2-[4-(1-Benzofuran-5-yl)phenyl]-3-{[1-(cyclopropylcarbonyl)azetidin-3-yl]methyl}-8-(1-methylethyl)-1,3,8-triazaspiro[4.5]dec-1-en-4-one] yielded an inhibition at 10 µM of 71.6% and an IC50 of 3.39 µM.

`COC(=O)N1CC[C@@H](CN2C(=O)C3(CN(C(=O)OC)C3)N=C2c2ccc(-c3ccc4occc4c3)cc2)C1` [compound 931, (S)-methyl 6-(4-(benzofuran-5-yl)phenyl)-7-((1-(methoxycarbonyl)pyrrolidin-3-yl)methyl)-8-oxo-2,5,7-triazaspiro[3.4]oct-5-ene-2-carboxylate] gave an inhibition at 10 µM of 31% and an IC50 of over 10 µM.

`O=C(C1CC1)N1CC[C@@H](CN2C(=O)C3(CC3)N=C2c2ccc(-c3ccc4occc4c3)s2)C1` [compound 422, 5-[5-(1-Benzofuran-5-yl)thiophen-2-yl]-6-{[(3R)-1-(cyclopropylcarbonyl)pyrrolidin-3-yl]methyl}-4,6-diazaspiro[2.4]hept-4-en-7-one] showed an inhibition at 10 µM of 70% and an IC50 of 3.31 µM.

Work on `CC(C)n1ccc2cc(-c3ccc(C4=NC5(CC5)C(=O)N4CC4CN(C(=O)C5CC5)C4)cc3)ccc21` [compound 508, 6-{[1-(Cyclopropylcarbonyl)azetidin-3-yl]methyl}-5-{4-[1-(1-methylethyl)-1H-indol-5-yl]phenyl}-4,6-diazaspiro[2.4]hept-4-en-7-one] yielded an inhibition at 10 µM of 74% and an IC50 of 2.88 µM.

`COC(=O)N1CC(CN2C(=O)C3(CCOC3)N=C2c2ccc(-c3ccc4cccnc4c3)cc2)C1` (centres unmarked) [compound 903, methyl 3-((4-oxo-2-(4-(quinolin-7-yl)phenyl)-7-oxa-1,3-diazaspiro[4.4]non-1-en-3-yl)methyl)azetidine-1-carboxylate] was tested, and the inhibition at 10 µM was 15% and the IC50 was over 10 µM.

With `CC(O)C(=O)N1CC(CN2C(=O)C3(CCOCC3)N=C2c2ccc(-c3ccc(-c4cnn(C)c4)cc3)cc2)C1` (centres unmarked) [compound 695, 3-{[1-(2-Hydroxypropanoyl)azetidin-3-yl]methyl}-2-[4′-(1-methyl-1H-pyrazol-4-yl)biphenyl-4-yl]-8-oxa-1,3-diazaspiro[4.5]dec-1-en-4-one] the inhibition at 10 µM was 43% and the IC50 was 5.89 µM.

For `CC(=O)N1CCC2(CC1)N=C(c1ccc(-c3ccc4c(c3)CCN(C(C)=O)C4)cc1)N(C[C@@H]1CCN(C(=O)C3CC3)C1)C2=O` [compound 160], the inhibition at 10 µM was 29.3% and the IC50 was over 10 µM.

Work on `Cn1cc(-c2ccc(-c3ccc(C4=NC5(CCOC5)C(=O)N4CC4CN(C(=O)[C@H]5CCCO5)C4)cc3)cc2)cn1` (stereo partly drawn) [compound 712, 2-[4′-(1-Methyl-1H-pyrazol-4-yl)biphenyl-4-yl]-3-({1-[(2R)-tetrahydro-furan-2-ylcarbonyl]azetidin-3-yl}methyl)-7-oxa-1,3-diazaspiro[4.4]non-1-en-4-one] yielded an inhibition at 10 µM of 69% and an IC50 of 2.45 µM.

`O=C(N1CC[C@@H](CN2C(=O)C3(CCOC3)N=C2c2ccc(-c3ccc4cccnc4c3)cc2)C1)C(F)(F)F` (stereo partly drawn) [compound 684, 2-(4-Quinolin-7-ylphenyl)-3-{[(3R)-1-(trifluoroacetyl)pyrrolidin-3-yl]methyl}-7-oxa-1,3-diazaspiro[4.4]non-1-en-4-one] was tested, and the inhibition at 10 µM was 61% and the IC50 was 4.27 µM.

In the case of `O=C(N1CC(CN2C(=O)C3(CCOC3)N=C2c2ccc(-c3ccc4cccnc4c3)cc2)C1)C(F)(F)F` (centres unmarked) [compound 895, 2-(4-(quinolin-7-yl)phenyl)-3-((1-(2,2,2-trifluoroacetyl)azetidin-3-yl)methyl)-7-oxa-1,3-diazaspiro[4.4]non-1-en-4-one], the inhibition at 10 µM was 6% and the IC50 was over 10 µM.

Molecule `COC(=O)N1CC2(C1)N=C(c1ccc(-c3ccc4cccnc4c3)cc1)N(C[C@@H]1CCN(C(=O)N3CCCC3)C1)C2=O` [compound 732, Methyl 8-oxo-7-{[(3S)-1-(pyrrolidin-1-ylcarbonyl)pyrrolidin-3-yl]methyl}-6-(4-quinolin-7-ylphenyl)-2,5,7-triazaspiro[3.4]oct-5-ene-2-carboxylate] has an inhibition at 10 µM of 88% and an IC50 of about 1.2 µM.

Work on `Cc1cc(C2=NC3(CC3)C(=O)N2CC2CN(C(=O)C3CC3)C2)ccc1-c1ccc2[nH]ncc2c1` [compound 448, 6-{[1-(Cyclopropylcarbonyl)azetidin-3-yl]methyl}-5-[4-(1H-indazol-5-yl)-3-methylphenyl]-4,6-diazaspiro[2.4]hept-4-en-7-one] yielded an inhibition at 10 µM of 50% and an IC50 of 8.51 µM.

`O=C(C1CC1)N1CC[C@@H](CN2C(=O)C3(CCCC3)N=C2c2ccc(-c3ccccn3)cc2)C1` [compound 18, 3-{[(3R)-1-(Cyclopropylcarbonyl)pyrrolidin-3-yl]methyl}-2-(4-pyridin-2-ylphenyl)-1,3-diazaspiro[4.4]non-1-en-4-one] was tested, and the inhibition at 10 µM was 42.7% and the IC50 was over 10 µM.

`CC(C)n1cc2cc(-c3ccc(C4=NC5(CC5)C(=O)N4CC4CN(C(=O)C5CC5)C4)cc3)ccc2n1` [compound 808, 6-((1-(cyclopropanecarbonyl)azetidin-3-yl)methyl)-5-(4-(2-isopropyl-2H-indazol-5-yl)phenyl)-4,6-diazaspiro[2.4]hept-4-en-7-one] gave an inhibition at 10 µM of 31% and an IC50 of over 10 µM.

Work on `CN(C)CC(=O)N1CCC2(CC1)N=C(c1ccc(-c3ccc4[nH]ncc4c3)cc1)N(C[C@@H]1CCN(C(=O)C3CC3)C1)C2=O` [compound 165, 3-{[(3R)-1-(Cyclopropylcarbonyl)pyrrolidin-3-yl]methyl}-8-(N,N-dimethylglycyl)-2-[4-(1H-indazol-5-yl)phenyl]-1,3,8-triazaspiro[4.5]dec-1-en-4-one] yielded an inhibition at 10 µM of 108% and an IC50 of 0.229 µM.

`O=C(C1CC1)N1CC(CN2C(=O)C3(CC3)N=C2c2ccc(-c3cnc4ncccc4c3)cc2)C1` [compound 799, 5-(4-(1,8-baphthyridin-3-yl)phenyl)-6-((1-(cyclopropanecarbonyl)azetidin-3-yl)methyl)-4,6-diazaspiro[2.4]hept-4-en-7-one] was tested, and the inhibition at 10 µM was 39% and the IC50 was over 10 µM.
